Assay results taken from the NIST ThermoML archive (doi:10.1021/je400839x).

Experiment: xn = mol fraction of the nth substance listed
Details: 101 kPa, Liquid; for speed of sound: Pulse-echo method; for mass density: Vibrating tube method; for viscosity: Concentric cylinders viscometry

CC(CC(C)(C)C)CC(C)(C)C [2,2,4,6,6-pentamethylheptane] + CCCCCCCCCCCCCCCC
Details	mass density [kg/m3]	speed of sound [m/s]	viscosity [mPa·s]
323.15 K, x1 = 0.1261	749.9	–	–
323.15 K, x1 = 0.2449	747.1	–	–
323.15 K, x1 = 0.4087	742.9	–	–
323.15 K, x1 = 0.562	738.6	1171.2	–
323.15 K, x1 = 0.7036	734.2	1147.2	–
323.15 K, x1 = 0.8368	729.6	1122.9	–
323.15 K, x1 = 1	723.5	1089.3	–
333.15 K, x1 = 0.1261	742.9	–	1.42
333.15 K, x1 = 0.2449	740.1	–	1.32
333.15 K, x1 = 0.4087	735.8	–	1.18
333.15 K, x1 = 0.562	731.5	–	1.06
333.15 K, x1 = 0.7036	727	–	0.944
333.15 K, x1 = 0.8368	722.3	–	0.843
333.15 K, x1 = 1	716.1	–	0.726
343.15 K, x1 = 0.1261	735.9	–	1.22
343.15 K, x1 = 0.2449	733	–	1.14
343.15 K, x1 = 0.4087	728.7	–	1.02
343.15 K, x1 = 0.562	724.4	–	0.922
343.15 K, x1 = 0.7036	719.7	–	0.827
343.15 K, x1 = 0.8368	714.9	–	0.742
343.15 K, x1 = 1	708.6	–	0.643
353.15 K, x1 = 0.1261	728.8	–	1.06
353.15 K, x1 = 0.2449	725.9	–	0.988
353.15 K, x1 = 0.4087	721.5	–	0.894
353.15 K, x1 = 0.562	717.1	–	0.81
353.15 K, x1 = 0.7036	712.3	–	0.73
353.15 K, x1 = 0.8368	707.5	–	0.658
353.15 K, x1 = 1	700.9	–	0.573
363.15 K, x1 = 0.1261	721.7	–	0.928
363.15 K, x1 = 0.2449	718.8	–	0.87
363.15 K, x1 = 0.4087	714.4	–	0.791
363.15 K, x1 = 0.562	709.8	–	0.719
363.15 K, x1 = 0.7036	704.9	–	0.651
363.15 K, x1 = 0.8368	700	–	0.589
363.15 K, x1 = 1	693.2	–	0.515
373.15 K, x1 = 0.1261	714.5	–	0.823
373.15 K, x1 = 0.2449	711.7	–	0.773
373.15 K, x1 = 0.4087	707.1	–	0.706
373.15 K, x1 = 0.562	702.5	–	0.644
373.15 K, x1 = 0.7036	697.5	–	0.585
373.15 K, x1 = 0.8368	692.3	–	0.531
373.15 K, x1 = 1	685.5	–	0.467
